Data as given in patent US20250034551A1, “METHODS AND SYSTEMS FOR HIGH-THROUGHPUT BIOCHEMICAL SCREENS” (THINK BIOSCIENCE, INC., priority 2021, published 2025).
“Also recorded” adds a separate entry of the source. Where two headings read alike, the source gives them in different places.

Assays:
[1] = biological target: kinase substrate domain (MidT) fused to the omega subunit of RNA polymerase (RpoZ), no protease recognition site in the linker (UniProt P0A800)
PTP1B [2] = biological target: T1, PTP1B (Homo sapiens, UniProt P18031); assay: PTP1B-catalyzed hydrolysis of p-nitrophenyl phosphate (pNPP), in vitro kinetic assay; format: biochemical; details: for Ki: PTP1B1-321; for inhibition of PTP1B activity on pNPP relative to himachalol: 50 nM PTP1B, 5 mM pNPP, 2% or 10% DMSO
T1 sequence (P18031 1-321): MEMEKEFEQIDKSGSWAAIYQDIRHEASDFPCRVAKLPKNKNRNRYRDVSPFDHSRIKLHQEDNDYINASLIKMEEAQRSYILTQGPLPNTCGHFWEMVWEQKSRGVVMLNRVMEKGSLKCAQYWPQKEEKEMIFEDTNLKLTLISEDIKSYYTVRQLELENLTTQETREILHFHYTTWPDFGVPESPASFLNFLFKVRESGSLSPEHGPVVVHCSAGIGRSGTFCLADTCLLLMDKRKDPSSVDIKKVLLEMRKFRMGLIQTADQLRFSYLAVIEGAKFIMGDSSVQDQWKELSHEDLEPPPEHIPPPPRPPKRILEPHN
Experimental: PTP1B was purified as described previously. Briefly, the E. coli BL21 (DE3) cells were transformed with a pET21b vector containing the catalytic domain of PTP1B (residues 1-321) modified with a 6× polyhistidine tag on its C-terminus. The cells were grown in 1-L cultures to an OD600 of 0.3-0.6 (37° C., 225 RPM), induced with 500 μM IPTG, and grown at 22° C. for 20 hours. The cells were lysed with B-PERII, and purified PTP1B by using desalting, nickel affinity, and anion exchange chromatography (HiPrep 26/10, HisTrap HP, and HiPrep Q HP, respectively; GE Healthcare). The final protein was stored (50 μM) in HEPES buffer (50 mM, pH 7.5, 0.5 mM TCEP) in 20% glycerol at −80° C.
(§1) Inhibition was examined by FPP by measuring its influence on PTP1B-catalyzed hydrolysis of p-nitrophenylphosphate (pNPP). Briefly, 100-μL reactions were prepared comprising 50 nM PTP1B, 0.167-20 mM pNPP, and 75-150 μM terpenoids in 50 mM HEPES (pH=7.3) with 50 mM TCEP, 50 μg/mL BSA, and 2-10% DMSO. The reactions were initiated by adding pNPP, and the production of p-nitrophenol (pNP) was monitored by measuring absorbance at 405 nm every 10 s for 5 min (SpectraMax iD3 plate reader). When necessary, the solubility of the terpenoids in individual wells were assessed by plotting the A405 values for each well—including a no-inhibitor well—in a single read.
Kinetic data was analyzed by using a custom Matlab script supplemented with a user-generated standard curve (e.g., a plot of absorbance at 405 nm vs. pNP concentration in μM, FIG. 15). This script removes datapoints outside of (i) the linear range of the standard curve and/or (ii) the initial rate regime, and it excludes datasets that contain fewer than 10 datapoints after these processing steps. The all datasets were fit using linear regression with Matlab's backslash operator. To determine the half maximal inhibitory concentration (IC50) of himachalol, kinetic models were evaluated by fitting them to standard models of inhibition (e.g., […], noncompetitive, […], and mixed inhibition). Briefly, the procedure included: (i) fitting an initial-rate measurements of pNPP hydrolysis with and without inhibitors, (ii) using the Akaike's Information Criterion (AIC) to compare the best-fit single parameter model to each alternative single-parameter model and accepting the “best-fit” model when the difference in AIC (Δi) exceeded 5 for all comparisons (when this criterion was not met, it was deemed that two or more single-parameter models may be indistinguishable), and (iii) using an F-test to compare a mixed inhibition model to the best-fit single-parameter model and accepting the mixed model if p<0.05. […] The MATLAB function “nlparci” was used to determine the confidence intervals of kinetic parameters, and those intervals were propagated to estimate confidence intervals for each IC50.
Inhibition by FPP, a costly reagent, was examined with three modifications of the above assay: (i) pNPP concentration was held constant (5 mM). (ii) The 10% DMSO was replaced with 10% of a mixture of methanol: 10 mM NH4OH (7:3). (FPP was purchased as a 1.1 mg/mL solution in methanol: 10 mM NH4OH (7:3)). (ii) IC50 was estimated by using a linear fit to the initial rate data; 95% confidence intervals were propagated on the regression parameters generated using Matlab's “coefCI function”. This approach, which reflects the limited number of measurements afforded by the FPP stock (measurements which include very high and very low initial rates), may result in a greater error than a more standard approach for estimating IC50 (e.g., 4-parameter logistic curves) but nonetheless provides an order of magnitude estimate of potency.

PTP1B [3] = biological target: T1, PTP1B; assay: fluorescence-based binding isotherms for BBR; design: binding of BBR to PTP1B in the presence of amorphadiene: dose or concentration left out as unconfirmed; details: for ΔFmax of BBR binding isotherm: ±SE
Description: (§2) Error bars denote standard error for n=3 technical replicates. […] Error bars denote standard deviation for n=3 technical replicates.

PTP1B [4] = biological target: T1, PTP1B; assay: melting temperatures determined with differential scanning fluorimetry; format: binding; details: n=3
Description: as §2

3CLpro = 3CLpro (Severe acute respiratory syndrome coronavirus 2, UniProt P0DTD1); assay: 3CLpro-mediated hydrolysis of FRET peptide Mca-[…](Dnp)K; format: biochemical, SARS-COV-2
Description: Förster resonance energy transfer (FRET) peptides provide a facile means of assaying protease inhibitors. These peptides contain a fluorophore and a quencher separated by a protease recognition domain; peptide cleavage separates the fluorophore and quencher and increases fluorescence.
For 3CLpro, a commercially available substrate was used: Mca-[…](Dnp)K (SEQ ID NO: 1), where Mca ((methoxycoumarin-4-yl) acetyl) was the fluorophore and 2,4-dinitrophenyl (Dnp) was the quencher. Using this assay, inhibition by eucalyptol and α-bisabolol (FIGS. 30B-30C, FIG. 56) was examined.

SARS-COV-2 3CLpro = SARS-COV-2 3CLpro (Severe acute respiratory syndrome coronavirus 2, UniProt P0DTD1); assay: 3CLpro-catalyzed proteolysis of fluorogenic peptide substrate TSAVLQ_AFC; format: biochemical; details: mean and standard error
[5] = solubility of terpenoids in kinetic assay wells (A405); format: physicochemical
Experimental: as §1

[6] = biological target: RpoZ-MidT fusion with the 3CLpro recognition sequence in the linker (number of flanking alanines not stated) (UniProt P0A800)
Chain of RpoZ-MidT fusion with the 3CLpro recognition sequence in the linker (number of flanking alanines not stated) (P0A800 whole entry, looked up, the tested form may be a part): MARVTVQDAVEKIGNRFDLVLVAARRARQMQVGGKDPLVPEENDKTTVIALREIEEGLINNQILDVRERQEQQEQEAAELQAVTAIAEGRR

[7] = biological target: RpoZ-MidT fusion with AAAA_Ubiquitin_AAAA added to the linker (UniProt P0A800)
Chain of RpoZ-MidT fusion with AAAA_Ubiquitin_AAAA added to the linker (P0A800 whole entry, looked up, the tested form may be a part): as above

[8] = biological target: RpoZ-MidT fusion with the HIV-1 protease recognition sequence in the linker (number of flanking alanines not stated) (UniProt P0A800)
Chain of RpoZ-MidT fusion with the HIV-1 protease recognition sequence in the linker (number of flanking alanines not stated) (P0A800 whole entry, looked up, the tested form may be a part): as above

[9] = biological target: RpoZ-MidT fusion with the PLpro recognition site LRGG in the linker (UniProt P0A800)
Chain of RpoZ-MidT fusion with the PLpro recognition site LRGG in the linker (P0A800 whole entry, looked up, the tested form may be a part): as above

[10] = biological target: RpoZ-MidT fusion with the DENVpro/WNVpro recognition site in the linker (UniProt P0A800)
Chain of RpoZ-MidT fusion with the DENVpro/WNVpro recognition site in the linker (P0A800 whole entry, looked up, the tested form may be a part): as above

[11] = biological target: RpoZ-MidT fusion with the HIV-1 protease recognition sequence in the linker (number of flanking alanines not stated), P0A800
Chain of RpoZ-MidT fusion with the HIV-1 protease recognition sequence in the linker (number of flanking alanines not stated), P0A800 (P0A800 whole entry, looked up, the tested form may be a part): as above

[12] = biological target: RpoZ-MidT fusion with the 3CLpro recognition sequence in the linker (number of flanking alanines not stated), P0A800
Chain of RpoZ-MidT fusion with the 3CLpro recognition sequence in the linker (number of flanking alanines not stated), P0A800 (P0A800 whole entry, looked up, the tested form may be a part): as above

Chain of kinase substrate domain (MidT) fused to the omega subunit of RNA polymerase (RpoZ), no protease recognition site in the linker (P0A800 whole entry, looked up, the tested form may be a part): as above

With “3-chymotrypsin-like protease (3CLpro) of SARS-CoV-2” the “dynamic range (DR, the change in luminescence caused by protease expression)” value [1] was 10.7±1.2 vs. 6.3±0.9.

For `CC(C)=CCC/C(C)=C/CC/C(C)=C/CO[P@@](=O)(O)OP(=O)(O)O` (stereo in doubt) [FPP, farnesyl pyrophosphate], the IC50 (PTP1B [2]; [PTP1B]=50 nM, [pNPP]=5 mM, linear fit, rough estimate, read-out: IC50 for PTP1B) was ~200 µM.

In the case of `CC1=C[C@@H]2C(=C(C)CC[C@H]2C(C)C)CC1` [(+)-8-cadinene], the IC50 (PTP1B [2]; major product of terpene synthase A0A0C9VSL7, error 95 CI, read-out: IC50 (PTP1B), estimated) is reported as 165 µM.

With `CCc1oc2cc(S(=O)(=O)Nc3ccc(S(=O)(=O)Nc4nccs4)cc3)ccc2c1C(=O)c1cc(Br)c(O)c(Br)c1` [BBR, 3-(3,5-dibromo-4-hydroxybenzoyl)-2-ethyl-N-[4-[(2-thiazolylamino)sulfonyl]phenyl]-6-benzofuransulfonamide] the “ΔFmax of BBR binding isotherm” value (PTP1B [3]; BBR alone) was 227000±13000, the “ΔFmax of BBR binding isotherm” value (PTP1B [3]; BBR with AD) was 195000±12000 and the “ΔFmax of BBR binding isotherm” value (PTP1B [3]; BBR with TCS401) was 94000±2000. The “binding of BBR to PTP1B in the presence of amorphadiene” value (PTP1B [3]; presence of amorphadiene) was “not significantly disrupted” and the “effect on melting temperature (stability) of PTP1B” value (shortened to “effect on melting temperature”) (PTP1B [4]) was “destabilize PTP1B”.

For `Cc1cc(-c2c3ccccc3c(Br)c3sc(C)c(C)c23)cc(C)c1O[C@H](Cc1ccccc1)C(=O)O` [Ertiprotafib], the “effect on melting temperature” value (PTP1B [4]) was “destabilize PTP1B”.

For `O=C(O)C(=O)Nc1sc2c(c1C(=O)O)CCNC2` [TCS401], the “effect on melting temperature” value (PTP1B [4]) was “do not”.

In the case of `C=C(C)[C@@H]1CC[C@@H](C)[C@@H]2CCC(C)=C[C@@H]21` [amorphadiene], the “selectivity PTP1B versus TCPTP” value (PTP1B [2]) is reported as “more potent inhibitor of PTP1B than TCPTP” and the “effect on melting temperature” value (PTP1B [4]) is reported as “do not”.

With `CC12CCC(CC1)C(C)(C)O2` [eucalyptol] the “inhibitory effect on 3CLpro” value (3CLpro; FRET peptide, FIG. 56) was “no inhibitory effect; also recorded: not an inhibitor”.

`CC1=C[C@H]2[C@@H](CC1)[C@](C)(O)CCCC2(C)C` [himachalol] gave a Ki (PTP1B [2]; fit of competitive model, read-out: Ki, competitive model) of 24.4 µM, a Ki (PTP1B [2]; fit of mixed model, read-out: Ki,c, mixed model) of 161 µM and a Ki (PTP1B [2]; fit of mixed model, read-out: Ki,u, mixed model) of 305 µM. It also gave a Ki (PTP1B [2]; fit of noncompetitive model, marked *, read-out: Ki, noncompetitive model (best fit)) of 280 µM, a Ki (PTP1B [2]; fit of uncompetitive model, read-out: Ki, uncompetitive model) of 253 µM and an IC50 (PTP1B [2]; PTP1B-catalyzed hydrolysis of pNPP, estimated from best-fit kinetic model at 20 mM pNPP, read-out: IC50 for PTP1B) of 280 ± 59 µM.

Molecule `CC(C)=CCC=C(C)C1CC=C(C)CC1` (stereo not drawn) [α-bisabolene] has an IC50 (SARS-COV-2 3CLpro) of 186 ± 12 µM.

In the case of `CC1=C[C@H]2C(=C(C)CCCC2(C)C)CC1` [β-himachalene], the “inhibition of PTP1B activity on pNPP relative to himachalol” value (PTP1B [2]) is reported as “less inhibitory” and the “solubility in kinetic assay” value [5] is reported as “low solubilities”.

For `C=C1C=CC(C)(C)CCCC(C)=CCC1` [γ-humulene], the “inhibition of PTP1B activity on pNPP relative to himachalol” value (PTP1B [2]) was “less inhibitory” and the “solubility in kinetic assay” value ([5]; precluded IC50 estimates) was “low solubilities”.

For HIV-1 protease, the “LuxAB luminescence response to protease overexpression” value (shortened to “LuxAB luminescence response”) [6] was “HIVpro appeared functional with all sites, which was behavior consistent with its reported promiscuity”, the “LuxAB luminescence response” value [7] was “HIVpro appeared functional with all sites, which was behavior consistent with its reported promiscuity” and the “LuxAB luminescence response” value [8] was “HIVpro appeared functional with all sites, which was behavior consistent with its reported promiscuity”. The “LuxAB luminescence response” value [9] was “HIVpro appeared functional with all sites, which was behavior consistent with its reported promiscuity”.

With “Non-structural protein 2B-3 protease complex from Dengue virus 2 (DENV2 NS2B-NS3)” the “LuxAB luminescence screen of proteases against recognition sites” value [10] was “WNVpro and DNVpro showed no activity in initial screens”.

With “Non-structural protein 2B-3 protease complex from West Nile Virus (WNV NS2B-NS3)” the “LuxAB luminescence screen of proteases against recognition sites” value [10] was “WNVpro and DNVpro showed no activity in initial screens”.

With α-bisabolol the IC50 (3CLpro; FRET / fluorogenic peptide, mixture containing α-bisabolol, read-out: IC50 for 3CLpro) was 3.33 µM, the IC50 (3CLpro; fit to percent inhibition, FIG. 30C, read-out: half-maximal inhibitory concentration (IC50) for 3CLpro) was ~3 µM and the IC50 (SARS-COV-2 3CLpro) was 30 to 80 µM.

B1: protein tyrosine phosphatase 1B (PTP1B), catalytic domain 1-321 (protein)
chain: MEMEKEFEQIDKSGSWAAIYQDIRHEASDFPCRVAKLPKNKNRNRYRDVSPFDHSRIKLHQEDNDYINASLIKMEEAQRSYILTQGPLPNTCGHFWEMVWEQKSRGVVMLNRVMEKGSLKCAQYWPQKEEKEMIFEDTNLKLTLISEDIKSYYTVRQLELENLTTQETREILHFHYTTWPDFGVPESPASFLNFLFKVRESGSLSPEHGPVVVHCSAGIGRSGTFCLADTCLLLMDKRKDPSSVDIKKVLLEMRKFRMGLIQTADQLRFSYLAVIEGAKFIMGDSSVQDQWKELSHEDLEPPPEHIPPPPRPPKRILEPHN
With B1 the “dynamic range of LuxAB luminescence between active and inactive PTP1B” value [11] was “retained the desired B2H activity (e.g., PTP1B inactivation increased luminescence) at a 4- to 5-fold dynamic range” and the “dynamic range of LuxAB luminescence between active and inactive PTP1B” value [12] was “retained the desired B2H activity (e.g., PTP1B inactivation increased luminescence) at a 4- to 5-fold dynamic range”.
